From patent US4894382A, “Substituted 1,3-diazolyl-2-propanols and their use as antimycotic agents” (Bayer Aktiengesellschaft, priority 1983, dated 1990)
Converted amounts (≈) assume the structure as drawn.

Legend:
Candida = experiment: Antimycotic in vivo action (oral) in candidosis of mice; set-up: species or system mice of the SPF-CF1 type; conditions: 10-50 mg/kg one hour before and seven hours after i.v. infection
Description: Antimycotic in vivo action (oral) in candidosis of mice
Mice of the SPF-CF1 type were infected intravenously with 1-2×10^6 logarithmically growing Candida cells, suspended in physiological saline solution. The animals were treated orally one hour before and seven hours after the infection, with in each case 10-50 mg/kg of body weight of the products.
Untreated animals died 3 to 6 days after infection. The survival rate on the 6th day after infection was about 5% in the case of untreated animals.

Trichophyton mentagr. = experiment: Antimycotic in vitro activity (series dilution test), Trichophyton mentagr.; format: cell-based, Trichophyton mentagrophytes; conditions: Sabourand's milieu d'epreuve, 5×10^4 germs/ml, 20° C., 96 hours, read-out: MIC values in Y/ml of nutrient medium for Trichophyton mentagr.
Description: (§1) Antimycotic in vitro activity
(§2) The in vitro tests were carried out in a series dilution test using germ inocula of on average 5×10^4 germs/ml of substrate. The nutrient medium used was (a) for dermatophytes and moulds: Sabourand's milieu d'epreuve, and (b) for yeasts: meat extract/glucose broth.
(§3) The incubation temperature was 20° C. and the incubation time was 24 to 96 hours for yeasts and 96 hours for dermatophytes and moulds.

Candida albicans = experiment: Antimycotic in vitro activity (series dilution test), Candida albicans; format: cell-based; conditions: meat extract/glucose broth, 5×10^4 germs/ml, 20° C., 24 to 96 hours, read-out: MIC values in Y/ml of nutrient medium for Candida albicans
Description: as §1, §2, §3

Torulopsis glabrata = experiment: Antimycotic in vitro activity (series dilution test), Torulopsis glabrata; format: cell-based; conditions: Nakaseomyces glabratus; meat extract/glucose broth; 5×10^4 germs/ml; 20° C.; 24 to 96 hours; read-out: MIC values in Y/ml of nutrient medium for Torulopsis glabrata
Description: as §1, §2, §3

Aspergillus fumigatus = experiment: Antimycotic in vitro activity (series dilution test), Aspergillus fumigatus; format: cell-based; conditions: Sabourand's milieu d'epreuve, 5×10^4 germs/ml, 20° C., 96 hours, read-out: MIC values in Y/ml of nutrient medium for Aspergillus fumigatus
Description: as §1, §2, §3

[1] = test system: dermatophytes, moulds and yeasts; experiment: Antimycotic in vitro activity (series dilution test), overall; format: cell-based
Description: as §1, §2, §3

Microsporum canis = experiment: Antimycotic in vitro activity (series dilution test), Microsporum canis; format: cell-based; conditions: Sabourand's milieu d'epreuve, 5×10^4 germs/ml, 20° C., 96 hours, read-out: MIC values in Y/ml of nutrient medium for Microsporum canis
Description: as §1, §2, §3

CC(C)(Cc1ccc(Cl)cc1)C(O)(Cn1ccnc1)Cn1cncn1 (centres unmarked) [Example 8]
Action (survivors on the 6th day after infection) (Candida): ++++ (good action=80% survivors on the 6th day after infection)
action in candidosis of mice (in words) (Candida): good to very good action

CC(C)(Oc1ccc(Cl)cc1)C(O)(Cn1cncn1)Cn1cncn1 [Example 6]
MIC (Trichophyton mentagr.): 32 µg/mL (≈ 88.2 µM)
MIC (Candida albicans): 4 µg/mL (≈ 11 µM)
MIC (Torulopsis glabrata): 16 µg/mL (≈ 44.1 µM)
MIC (Aspergillus fumigatus): 64 µg/mL (≈ 176 µM)
antimycotic action in vitro (in words) [1]: good antimycotic action
Action (survivors on the 6th day after infection) (Candida): ++++ (good action=80% survivors on the 6th day after infection)
action in candidosis of mice (in words) (Candida): good to very good action

Cc1ccc(CC(C)(C)C(O)(Cn2cncn2)Cn2cncn2)cc1 [Example 3]
MIC (Trichophyton mentagr.): 1 µg/mL (≈ 2.94 µM)
MIC (Microsporum canis): 8 µg/mL (≈ 23.5 µM)
MIC (Candida albicans): 16 µg/mL (≈ 47 µM)
MIC (Torulopsis glabrata): 64 µg/mL (≈ 188 µM)
MIC (Aspergillus fumigatus): 4 µg/mL (≈ 11.7 µM)
antimycotic action in vitro (in words) [1]: good antimycotic action
Action (survivors on the 6th day after infection) (Candida): ++++ (good action=80% survivors on the 6th day after infection)
action in candidosis of mice (in words) (Candida): good to very good action

CC(C)(Cc1ccc(Cl)cc1)C(O)(Cn1cncn1)Cn1cncn1 [Example 2]
MIC (Trichophyton mentagr.): 1 µg/mL (≈ 2.77 µM)
MIC (Microsporum canis): 4 µg/mL (≈ 11.1 µM)
MIC (Candida albicans): 4 µg/mL (≈ 11.1 µM)
MIC (Torulopsis glabrata): 16 µg/mL (≈ 44.3 µM)
MIC (Aspergillus fumigatus): 4 µg/mL (≈ 11.1 µM)
antimycotic action in vitro (in words) [1]: good antimycotic action
Action (survivors on the 6th day after infection) (Candida): +++++ (very good action=90% survivors on the 6th day after infection)
action in candidosis of mice (in words) (Candida): good to very good action

CC(C)(Cc1ccc(Cl)cc1Cl)C(O)(Cn1cncn1)Cn1cncn1 [Example 1, 4-(2,4-dichlorophenyl)-3,3-dimethyl-2-(1,2,4-triazol-1-yl-methyl)-1-(1,2,4-triazol-1-yl)-2-butanol]
MIC (Trichophyton mentagr.): 1 µg/mL (≈ 2.53 µM)
MIC (Microsporum canis): 32 µg/mL (≈ 81 µM)
MIC (Candida albicans): 32 µg/mL (≈ 81 µM)
MIC (Torulopsis glabrata): 64 µg/mL (≈ 162 µM)
MIC (Aspergillus fumigatus): 32 µg/mL (≈ 81 µM)
antimycotic action in vitro (in words) [1]: good antimycotic action
Action (survivors on the 6th day after infection) (Candida): +++++ (very good action=90% survivors on the 6th day after infection)
action in candidosis of mice (in words) (Candida): good to very good action

CC(C)(CSc1ccc(Cl)cc1)C(O)(Cn1cncn1)Cn1cncn1 [Example 5]
MIC (Trichophyton mentagr.): 1 µg/mL (≈ 2.55 µM)
MIC (Microsporum canis): 32 µg/mL (≈ 81.4 µM)
MIC (Candida albicans): 32 µg/mL (≈ 81.4 µM)
MIC (Torulopsis glabrata): 64 µg/mL (≈ 163 µM)
MIC (Aspergillus fumigatus): 32 µg/mL (≈ 81.4 µM)
antimycotic action in vitro (in words) [1]: good antimycotic action
Action (survivors on the 6th day after infection) (Candida): ++++ (good action=80% survivors on the 6th day after infection)
action in candidosis of mice (in words) (Candida): good to very good action
